Molecular target: T1, sGC α1/β1 heterodimer (Homo sapiens, UniProt Q02108+Q02153)
T1 construct: expressed in transfected cells; host or cells: CHO-K1 (clone #7, CHO-K1/sGC)
T1 sequence (Q02108 1-690): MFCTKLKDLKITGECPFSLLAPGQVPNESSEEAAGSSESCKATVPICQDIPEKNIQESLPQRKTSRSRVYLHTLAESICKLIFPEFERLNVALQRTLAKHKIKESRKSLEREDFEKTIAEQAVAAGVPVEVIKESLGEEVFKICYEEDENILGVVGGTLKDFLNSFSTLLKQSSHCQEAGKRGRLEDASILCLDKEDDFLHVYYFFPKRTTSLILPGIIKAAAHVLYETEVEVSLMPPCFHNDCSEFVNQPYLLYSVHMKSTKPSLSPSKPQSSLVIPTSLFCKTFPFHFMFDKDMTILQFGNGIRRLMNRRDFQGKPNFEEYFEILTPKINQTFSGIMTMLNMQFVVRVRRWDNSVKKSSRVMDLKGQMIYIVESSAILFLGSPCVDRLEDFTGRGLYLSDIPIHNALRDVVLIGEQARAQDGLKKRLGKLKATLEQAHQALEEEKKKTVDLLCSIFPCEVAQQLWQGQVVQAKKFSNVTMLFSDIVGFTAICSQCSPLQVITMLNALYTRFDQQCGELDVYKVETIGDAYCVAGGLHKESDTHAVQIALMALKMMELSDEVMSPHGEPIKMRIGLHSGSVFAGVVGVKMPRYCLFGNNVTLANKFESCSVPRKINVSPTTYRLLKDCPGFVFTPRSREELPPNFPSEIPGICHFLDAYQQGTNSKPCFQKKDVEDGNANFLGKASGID
T1 sequence (Q02153 1-619): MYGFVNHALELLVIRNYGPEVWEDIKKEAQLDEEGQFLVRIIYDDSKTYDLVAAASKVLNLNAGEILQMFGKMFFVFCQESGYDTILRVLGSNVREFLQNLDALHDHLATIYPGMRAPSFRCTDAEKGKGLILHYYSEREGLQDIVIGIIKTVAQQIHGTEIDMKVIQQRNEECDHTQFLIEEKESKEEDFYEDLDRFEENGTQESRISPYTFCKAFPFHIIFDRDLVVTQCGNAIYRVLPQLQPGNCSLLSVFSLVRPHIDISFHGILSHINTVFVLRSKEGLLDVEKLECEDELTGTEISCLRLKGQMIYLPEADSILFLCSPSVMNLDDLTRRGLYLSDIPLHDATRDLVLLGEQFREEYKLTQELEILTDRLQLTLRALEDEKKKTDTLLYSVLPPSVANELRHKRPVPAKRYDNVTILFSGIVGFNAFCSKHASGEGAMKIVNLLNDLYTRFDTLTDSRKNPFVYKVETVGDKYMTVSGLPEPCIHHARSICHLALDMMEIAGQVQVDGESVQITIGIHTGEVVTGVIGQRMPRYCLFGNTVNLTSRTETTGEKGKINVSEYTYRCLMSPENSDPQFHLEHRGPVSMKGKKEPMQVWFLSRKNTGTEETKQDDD
Assay: Cell-based sGC functional assay (CASA assay): cGMP generation in CHO-K1/sGC cells, HTRF detection
Conditions: for Emax: CHO-K1, percent activation relative to standard Compound A in CHO-K1/sGC cells, read-out: % Act.; for EC50: inflection point (IP) of cGMP generation in CHO-K1/sGC cells, 4P fit, activity expressed as percentage of Compound A
Source text: Biological Assay 1: Cell-Based sGC Functional Assay (CASA Assay)
sGC is a heme-containing enzyme that converts GTP to secondary messenger cGMP. Increases in cGMP levels affect several physiological processes including vasorelaxation through multiple downstream pathways. […] Heme-dependent activators (HDAs) preferentially activate sGC containing a ferrous heme group. To determine the effect of sGC activators on enzyme activity, the CASA assay was developed to monitor the generation of cGMP in a cell line that stably expresses the heterodimeric sGC protein.
A CHO-K1 cell line stably expressing the sGC α1/β1 heterodimer was generated using a standard transfection protocol. CHO-K1 cells were transfected with plasmids pIREShyghsGCal and pIRESneo-hsGCβ1 simultaneously using FUGENE reagent. Clones that stably express both subunits were selected with hygromycin and neomycin for 2 weeks. Clone #7 was chosen for the assay and was designated CHO-K1/sGC. CHO-K1/sGC cells were maintained in F-K12 medium containing 10% heat-inactivated Fetal Bovine Serum (FBS), 100 μg/mL penicillin/streptomycin, 0.5 mg/mL hygromycin and 0.25 mg/mL G418. The cells were then cryopreserved in LN2. On the day of the assay, cells thawed and resuspended in EBSS Assay Buffer (Sigma, E3024) supplemented with 5 mM MgCl2, 10 mM HEPES (4-(2-hydroxyethyl)piperazine-1-ethanesulfonic acid) and 0.05% BSA (bovine serum albumin) (EAB) and cell density was then adjusted to 4×10^5/mL with EAR IBMX (3-isobutyl-1-methylxanthin, 0.5 mM) was added to inhibit degradation of cGMP. Compounds were diluted from DMSO stock solutions and added to the assay at a final DMSO concentration of 2.5%. Cells were incubated with compounds in the presence and absence of 1 μM of Diethylenetriamine/nitric oxide adduct (DETA-NO; Sigma, 17018) for 1 hr at 37° C. At the end of the incubation period, the reaction was terminated and the cells were lysed with the detection reagents from Cisbio Kits. The level of intracellular cGMP was determined using an HTRF-based assay kit (CisBio, 62GM2PEC), which detects the displacement of a fluorescence labeled cGMP from its specific antibody. The cGMP produced by test compounds was directly compared to the maximum cGMP production (this value was set to equal 100% activation.) of the published sGC-HDA Compound A:
[drawing 597] (Example 1 in WO 2010/065275, published Jun. 10, 2010). The test compounds' activities were then expressed as a percentage of Compound A, the standard in every experiment. This percent activation was calculated either in the presence or absence of DETA-NO which was then plotted. IP and maximum fold induction was derived using ADA analysis software for 4P fit.
The compounds in the Examples of the instant invention had inflection points (IP) less than or equal to 10 μM and more particularly less than or equal to about 1 μM.

Emax [%]	EC50 [nM]	Compound
106	469	CC1(c2ccc(Cl)cc2)C(=O)Nc2nc(-c3cn4ccnc4cn3)nc(N3CC(F)(F)C3)c21 (single isomer, unassigned) [Example 277A]
124	157	CCCc1nc(-c2nc(N)c3c(n2)NC(=O)C3(C)c2ccc(F)cc2)cn2ccnc12 (centres unmarked) [Example 17A, 4-amino-5-(4-fluorophenyl)-5-methyl-2-(8-propylimidazo[1,2-a]pyrazin-6-yl)-5H-pyrrolo[2,3-d]pyrimidin-6(7H)-one]
101	319	COC(=O)c1cccc(C2(C)C(=O)Nc3nc(-c4cn5ccnc5c(CCC(F)(F)C(F)(F)F)n4)nc(N)c32)c1 (single isomer, unassigned) [Example 270B, Methyl 3-(4-amino-5-methyl-6-oxo-2-(8-(3,3,4,4,4-pentafluorobutyl)imidazo[1,2-a]pyrazin-6-yl)-6,7-dihydro-5H-pyrrolo[2,3-d]pyrimidin-5-yl)benzoate]
85	441	CC1(c2ccc(F)cn2)C(=O)Nc2nc(-c3cn4ccnc4c(C4CCC4)n3)nc(N)c21 (centres unmarked) [Example 27B, 4-amino-2-(8-cyclobutylimidazo[1,2-a]pyrazin-6-yl)-5-(5-fluoropyridin-2-yl)-5-methyl-5H-pyrrolo[2,3-d]pyrimidin-6(7H)-one]
121	648	CC1(c2ccccc2)C(=O)Nc2nc(-c3cn4c(Br)cnc4c(CCC(F)(F)F)n3)nc(N)c21 (centres unmarked) [Example 265B, 4-amino-2-(3-bromo-8-(3,3,3-trifluoropropyl)imidazo[1,2-a]pyrazin-6-yl)-5-methyl-5-phenyl-5H-pyrrolo[2,3-d]pyrimidin-6(7H)-one]
87	152	CC(F)(F)c1ccc(C2(C)C(=O)Nc3nc(-c4cn5ccnc5c(CCC(F)(F)C(F)(F)F)n4)nc(N)c32)cn1 (single isomer, unassigned) [Example 379A, 4-amino-5-(6-(1,1-difluoroethyl)pyridin-3-yl)-5-methyl-2-(8-(3,3,4,4,4-pentafluorobutyl)imidazo[1,2-a]pyrazin-6-yl)-5H-pyrrolo[2,3-d]pyrimidin-6(7H)-one]
85	18	CC1(c2ccccn2)C(=O)Nc2nc(-c3cn4ccnc4c(Cc4ccc(F)cc4)n3)nc(N)c21 (centres unmarked) [Example 103B, 4-amino-2-(8-(4-fluorobenzyl)imidazo[1,2-a]pyrazin-6-yl)-5-methyl-5-(pyridin-2-yl)-5H-pyrrolo[2,3-d]pyrimidin-6(7H)-one]
96	257	CC(C)Cc1nc(-c2nc(N)c3c(n2)NC(=O)C3(C)c2ccc(F)cn2)cn2ccnc12 (centres unmarked) [Example 23B, 4-amino-5-(5-fluoropyridin-2-yl)-2-(8-isobutylimidazo[1,2-a]pyrazin-6-yl)-5-methyl-5H-pyrrolo[2,3-d]pyrimidin-6(7H)-one]
108	108	CC1(c2ccc(F)cc2)C(=O)Nc2nc(-c3cn4ccnc4c(CCC(F)(F)C(F)(F)F)n3)nc(N3CCC3)c21 (centres unmarked) [Example 306A, 4-(azetidin-1-yl)-5-(4-fluorophenyl)-5-methyl-2-(8-(3,3,4,4,4-pentafluorobutyl)imidazo[1,2-a]pyrazin-6-yl)-5H-pyrrolo[2,3-d]pyrimidin-6(7H)-one]
110	37	CC1(c2ccc(Cl)cc2)C(=O)Nc2nc(-c3cn4cc(C(F)(F)F)nc4c(Cc4ccc(F)cc4)n3)nc(N)c21 (centres unmarked) [Example 153A, 4-amino-5-(4-chlorophenyl)-2-(8-(4-fluorobenzyl)-2-(trifluoromethyl)imidazo[1,2-a]pyrazin-6-yl)-5-methyl-5H-pyrrolo[2,3-d]pyrimidin-6(7H)-one]
114	624	CC1(c2ccc(F)cc2)C(=O)Nc2nc(-c3cn4ccnc4c(CCC(F)(F)C(F)(F)F)n3)nc(N3CCN(S(C)(=O)=O)CC3)c21 (centres unmarked) [Example 299A, 5-(4-fluorophenyl)-5-methyl-4-(4-(methylsulfonyl)piperazin-1-yl)-2-(8-(3,3,4,4,4-pentafluorobutyl)imidazo[1,2-a]pyrazin-6-yl)-5H-pyrrolo[2,3-d]pyrimidin-6(7H)-one]
124	570	CC1(C(=O)NC2CC2)C(=O)Nc2nc(-c3cn4cc(C(F)(F)F)nc4c(Cc4cccc(F)c4)n3)nc(N)c21 (centres unmarked) [Example 46A, 4-amino-N-cyclopropyl-2-(8-(3-fluorobenzyl)-2-(trifluoromethyl)imidazo[1,2-a]pyrazin-6-yl)-5-methyl-6-oxo-6,7-dihydro-5H-pyrrolo[2,3-d]pyrimidine-5-carboxamide]
129	37	CCCCc1nc(-c2nc(N)c3c(n2)NC(=O)C3(c2ccc(C(F)(F)F)cn2)C2CC2)cn2ccnc12 (centres unmarked) [Example 133A, 4-amino-2-(8-butylimidazo[1,2-a]pyrazin-6-yl)-5-cyclopropyl-5-(5-(trifluoromethyl)pyridin-2-yl)-5H-pyrrolo[2,3-d]pyrimidin-6(7H)-one]
99	58	CC(C)Oc1ccc(C2(C)C(=O)Nc3nc(-c4cn5ccnc5c(CCC(F)(F)C(F)(F)F)n4)nc(N)c32)cn1 (centres unmarked) [Example 241B, 4-amino-5-(6-isopropoxypyridin-3-yl)-5-methyl-2-(8-(3,3,4,4,4-pentafluorobutyl)imidazo [1,2-a]pyrazin-6-yl)-5H-pyrrolo[2,3-d]pyrimidin-6(7H)-one]
126	281	CN(C)c1nc(-c2cn3ccnc3c(CCC(F)(F)C(F)(F)F)n2)nc2c1C(C)(c1ccc(F)cc1)C(=O)N2 (centres unmarked) [Example 308A, 4-(dimethylamino)-5-(4-fluorophenyl)-5-methyl-2-(8-(3,3,4,4,4-pentafluorobutyl)imidazo[1,2-a]pyrazin-6-yl)-5H-pyrrolo[2,3-d]pyrimidin-6(7H)-one]
93	890	Nc1nc(-c2cn3cc(C(F)(F)F)nc3c(Cc3ccccc3)n2)nc2c1C(C(=O)NC1CC1)(C1CC1)C(=O)N2 (centres unmarked) [Example 51A, 4-amino-2-(8-benzyl-2-(trifluoromethyl)imidazo[1,2-a]pyrazin-6-yl)-N,5-dicyclopropyl-6-oxo-6,7-dihydro-5H-pyrrolo[2,3-d]pyrimidine-5-carboxamide]
